Each block holds one compound with its values, some of them ahead of it.
Columns and labels:
[1] = Cell viability assay (MTT), normal cells; type: cell-based; details: human, MCF-10A normal mammary gland epithelial cells, four-day incubation
Protocol: The impact of novel compounds 10a-o and 13a-e on cell viability was examined using the MCF-10A (human mammary gland epithelial) normal cell line. The MTT test was employed to assess the cell viability of the novel compounds after a four-day incubation with MCF-10A cells ([El-Sherief et al., 2019]; [Ramadan et al., 2020]).
The effects of compounds 10a-o and 13a-e on cell viability were assessed using the human mammary gland epithelial normal cell line (MCF-10A). The MTT assay assessed the cell viability of compounds 10a-o and 13a-e following a four-day incubation with MCF-10A cells ([El-Sherief et al., 2019]; [Ramadan et al., 2020]). Check Supplementary Appendix A for additional information.
4.2. Biological evaluation
4.2.1 Cell Viability assay (MTT assay)
MTT assay was performed to investigate the effect of the synthesized compounds on mammary epithelial cells (MCF-10A). The cells were propagated in medium consisting of Ham's F-12 medium/ Dulbecco's modified Eagle's medium (DMEM) (1:1) supplemented with 10% foetal calf serum, 2 mM glutamine, insulin (10 μg/mL), hydrocortisone (500 ng/mL) and epidermal growth factor (20 ng/mL). Trypsin ethylenediamine tetra acetic acid (EDTA) was used to passage the cells after every 2-3 days. 96-well flat-bottomed cell culture plates were used to seed the cells at a density of 10^4 cells mL-1. The medium was aspirated from all the wells of culture plates after 24 h followed by the addition of synthesized compounds (in 200 μL medium to yield a final concentration of 0.1% (v/v) dimethyl sulfoxide) into individual wells of the plates.
Four wells were designated to a single compound. The plates were allowed to incubate at 37°C for 96 h. Afterwards, the medium was aspirated and 3-[4,5-dimethylthiazol-2-yl]-2,5-diphenyltetrazolium bromide (MTT) (0.4 mg/mL) in medium was added to each well and subsequently incubated for 3 h. The medium was aspirated and 150 μL dimethyl sulfoxide (DMSO) was added to each well. The plates were vortexed followed by the measurement of absorbance at 540 nm on a microplate reader. The results were presented as inhibition (%) of proliferation in contrast to controls comprising 0.1%

[2] = test system: prostatic - PC-3; experiment: Antiproliferative assay (MTT) PC-3; details: for IC50: read-out: Antiproliferative activity IC50 ± SEM (µM) PC-3, PC-3, MTT
[3] = test system: breast - MCF-7; experiment: Antiproliferative assay (MTT) MCF-7; details: for IC50: read-out: Antiproliferative activity IC50 ± SEM (µM) MCF-7, MCF-7, MTT
[4] = test system: colon - HCT-116; experiment: Antiproliferative assay (MTT) HCT-116; details: for IC50: read-out: Antiproliferative activity IC50 ± SEM (µM) HCT-116, HCT-116, MTT
[5] = test system: - MDAMB-231; experiment: Antiproliferative assay (MTT) MDAMB-231
[6] = test system: pancreatic - MDAMB-231; experiment: Antiproliferative assay (MTT) MDAMB-231; details: read-out: Antiproliferative activity IC50 ± SEM (µM) MDAMB-231; MDAMB-231, MTT
[7] = test system: four human cancer cell lines (HCT-116, PC-3, MCF-7, MDAMB-231); experiment: Antiproliferative assay, mean of four cell lines (GI50); details: for Reduced potency compared to doxorubicin (GI50) / Reduced potency compared to sorafenib (GI50): GI50 ratio; for IC50: Homo sapiens, read-out: GI50 (average IC50)
[8] = test system: tubulin; experiment: Tubulin polymerization inhibition assay (Cytoskeleton kit);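 as to all read-outs here: Cell-free tubulin polymerization read by fluorescent reporter enhancement over a 30 min reaction, with the compound-free kit control taken as 100% activity and inhibition relative to it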; details: for Tub %inh / Tub. enzyme inhibition assay %inhibition: 30 min; for Tub %inh: YB-EGY run; for Tub K.Activity: EC = 120, YB-EGY run; for IC50: read-out: Tubulin inhibition IC50 ± SEM, triplicate for each tested concentration; for Tub. enzyme inhibition assay %inhibition: codes 522-537 run; for Tub. enzyme inhibition assay K. Activity: control = 120, codes 522-537 run

IC50 [2]: 16 ± 1.3 µM
IC50 [3]: 10 ± 0.8 µM
IC50 [4]: 19 ± 1.5 µM
IC50 [6]: 8 ± 0.7 µM
Reduced potency compared to doxorubicin (GI50) [7]: at least 2.5 fold
Reduced potency compared to sorafenib (GI50) [7]: ≥ 1.5 fold
IC50 [7]: 13 µM
IC50 [8]: 5.26 ± 0.16 µM
SMILES: Cc1ccc(/C=C/C(=O)c2sc(SCC(=O)Nc3nc(-c4ccccc4)cs3)nc2C)cc1 [Compound 10d, (E)-2-((4-methyl-5-(3-(p-tolyl)acryloyl)thiazol-2-yl)thio)-N-(4-phenylthiazol-2-yl)acetamide]
viability at 96 h, 50 µM [1]: 90%
Average of Relative viability of cells (%) ([2]; PC-3, 1.56 µM): 100%
Average of Relative viability of cells (%) ([2]; PC-3, 3.125 µM): 86.5%
Average of Relative viability of cells (%) ([2]; PC-3, 6.25 µM): 69.6%
Average of Relative viability of cells (%) ([2]; PC-3, 12.5 µM): 52.3%
Average of Relative viability of cells (%) ([2]; PC-3, 25 µM): 36.4%
Average of Relative viability of cells (%) ([2]; PC-3, 50 µM): 27.9%
Average of Relative viability of cells (%) ([2]; PC-3, 100 µM): 18.7%
Average of Relative viability of cells (%) ([3]; MCF-7, 1.56 µM): 97.5%
Average of Relative viability of cells (%) ([3]; MCF-7, 3.125 µM): 84.1%
Average of Relative viability of cells (%) ([3]; MCF-7, 6.25 µM): 57.3%
Average of Relative viability of cells (%) ([3]; MCF-7, 12.5 µM): 39.2%
Average of Relative viability of cells (%) ([3]; MCF-7, 25 µM): 22.6%
Average of Relative viability of cells (%) ([3]; MCF-7, 50 µM): 20.4%
Average of Relative viability of cells (%) ([3]; MCF-7, 100 µM): 8.1%
Average of Relative viability of cells (%) ([4]; HCT-116, 1.56 µM): 100%
Average of Relative viability of cells (%) ([4]; HCT-116, 3.125 µM): 91.5%
Average of Relative viability of cells (%) ([4]; HCT-116, 6.25 µM): 73.6%
Average of Relative viability of cells (%) ([4]; HCT-116, 12.5 µM): 50.2%
Average of Relative viability of cells (%) ([4]; HCT-116, 25 µM): 41.9%
Average of Relative viability of cells (%) ([4]; HCT-116, 50 µM): 29.7%
Average of Relative viability of cells (%) ([4]; HCT-116, 100 µM): 22.4%
Average of Relative viability of cells (%) ([5]; MDAMB-231, 1.56 µM): 89.2%
Average of Relative viability of cells (%) ([5]; MDAMB-231, 3.125 µM): 69.3%
Average of Relative viability of cells (%) ([5]; MDAMB-231, 6.25 µM): 60.4%
Average of Relative viability of cells (%) ([5]; MDAMB-231, 12.5 µM): 31.6%
Average of Relative viability of cells (%) ([5]; MDAMB-231, 25 µM): 25.8%
Average of Relative viability of cells (%) ([5]; MDAMB-231, 50 µM): 16.9%
Average of Relative viability of cells (%) ([5]; MDAMB-231, 100 µM): 13.9%
Tub %inh ([8]; conc 0.1 (unit not given)): 17.5%
Tub K.Activity ([8]; conc 0.1 (unit not given)): 98.945
Tub %inh ([8]; conc 1 (unit not given)): 26.6%
Tub K.Activity ([8]; conc 1 (unit not given)): 88.129
Tub %inh ([8]; conc 10 (unit not given)): 45.2%
Tub K.Activity ([8]; conc 10 (unit not given)): 65.722
Tub %inh ([8]; conc 50 (unit not given)): 71.7%
Tub K.Activity ([8]; conc 50 (unit not given)): 33.903
Tub %inh ([8]; conc 100 (unit not given)): 91.1%
Tub K.Activity ([8]; conc 100 (unit not given)): 10.641

SMILES: Cc1nc(SCC(=O)Nc2nc(-c3ccc(Cl)cc3)cs2)sc1C(=O)/C=C/c1ccccc1 [Compound 10f, (E)-N-(4-(4-chlorophenyl)thiazol-2-yl)-2-((5-cinnamoyl-4-methylthiazol-2-yl)thio) acetamide]
viability at 96 h, 50 µM [1]: 86%
Average of Relative viability of cells (%) ([2]; PC-3, 1.56 µM): 100%
Average of Relative viability of cells (%) ([2]; PC-3, 3.125 µM): 91.8%
Average of Relative viability of cells (%) ([2]; PC-3, 6.25 µM): 70.5%
Average of Relative viability of cells (%) ([2]; PC-3, 12.5 µM): 58.2%
Average of Relative viability of cells (%) ([2]; PC-3, 25 µM): 46.7%
Average of Relative viability of cells (%) ([2]; PC-3, 50 µM): 32.3%
Average of Relative viability of cells (%) ([2]; PC-3, 100 µM): 24.2%
IC50 [2]: 22 ± 1.6 µM
Average of Relative viability of cells (%) ([3]; MCF-7, 1.56 µM): 100%
Average of Relative viability of cells (%) ([3]; MCF-7, 3.125 µM): 84.7%
Average of Relative viability of cells (%) ([3]; MCF-7, 6.25 µM): 68.3%
Average of Relative viability of cells (%) ([3]; MCF-7, 12.5 µM): 41.9%
Average of Relative viability of cells (%) ([3]; MCF-7, 25 µM): 33.5%
Average of Relative viability of cells (%) ([3]; MCF-7, 50 µM): 27.4%
Average of Relative viability of cells (%) ([3]; MCF-7, 100 µM): 19.2%
IC50 [3]: 14 ± 1.1 µM
Average of Relative viability of cells (%) ([4]; HCT-116, 1.56 µM): 100%
Average of Relative viability of cells (%) ([4]; HCT-116, 3.125 µM): 90.2%
Average of Relative viability of cells (%) ([4]; HCT-116, 6.25 µM): 71.1%
Average of Relative viability of cells (%) ([4]; HCT-116, 12.5 µM): 63.4%
Average of Relative viability of cells (%) ([4]; HCT-116, 25 µM): 50.5%
Average of Relative viability of cells (%) ([4]; HCT-116, 50 µM): 35.7%
Average of Relative viability of cells (%) ([4]; HCT-116, 100 µM): 23.6%
IC50 [4]: 25 ± 1.8 µM
Average of Relative viability of cells (%) ([5]; MDAMB-231, 1.56 µM): 96.1%
Average of Relative viability of cells (%) ([5]; MDAMB-231, 3.125 µM): 79.5%
Average of Relative viability of cells (%) ([5]; MDAMB-231, 6.25 µM): 63.2%
Average of Relative viability of cells (%) ([5]; MDAMB-231, 12.5 µM): 38.7%
Average of Relative viability of cells (%) ([5]; MDAMB-231, 25 µM): 27.4%
Average of Relative viability of cells (%) ([5]; MDAMB-231, 50 µM): 17.8%
Average of Relative viability of cells (%) ([5]; MDAMB-231, 100 µM): 14.3%
IC50 [6]: 10 ± 0.9 µM
Reduced potency compared to doxorubicin (GI50) [7]: at least 2.5 fold
Reduced potency compared to sorafenib (GI50) [7]: ≥ 1.5 fold
IC50 [7]: 18 µM
Tub. enzyme inhibition assay %inhibition ([8]; conc 0.01 (unit not given)): 5.23%
Tub. enzyme inhibition assay K. Activity ([8]; conc 0.01 (unit not given)): 113.72
Tub. enzyme inhibition assay %inhibition ([8]; conc 0.1 (unit not given)): 15.6%
Tub. enzyme inhibition assay K. Activity ([8]; conc 0.1 (unit not given)): 101.33
Tub. enzyme inhibition assay %inhibition ([8]; conc 1 (unit not given)): 34.8%
Tub. enzyme inhibition assay K. Activity ([8]; conc 1 (unit not given)): 78.182
Tub. enzyme inhibition assay %inhibition ([8]; conc 10 (unit not given)): 58.9%
Tub. enzyme inhibition assay K. Activity ([8]; conc 10 (unit not given)): 49.376
Tub. enzyme inhibition assay %inhibition ([8]; conc 100 (unit not given)): 87.6%
Tub. enzyme inhibition assay K. Activity ([8]; conc 100 (unit not given)): 14.884
IC50 [8]: 5.62 ± 0.17 µM
Tub. (IC50) IC50±SD ([8]; supplement raw data, lab codes): 2.88 ± 0.09 mg/L

Reference: article PMC12040969, “Design, synthesis, in silico studies, and apoptotic antiproliferative activity of novel thiazole-2-acetamide derivatives as tubulin polymerization inhibitors” (Frontiers in Chemistry, 2025)
